14 compounds from patent US10130631B2, “CML therapeutic agents with reduced drug-resistance and side-effect comprising 1,6-disubstituted indole compounds” (KOREA INSTITUTE OF SCIENCE AND TECHNOLOGY, priority 2016, dated 2018) can be followed below.

What all share (assay type): cell-based
For one test, the system named is T315I-Bcr-Abl Ba/F3. Kind of test: Proliferation inhibitory activity, T315I-Bcr-Abl Ba/F3. Conditions: for GI50: Mus musculus, BaF3, T315I-Bcr-Abl Ba/F3 cell line; for inhibitory activity against T315I-Bcr-Abl (in words): summary of Table 1. The protocol: (§1) The GI50 value was calculated by measuring the inhibitory effect on the proliferation of the compounds of the present invention in parental Ba/F3, wt-Bcr-Abl Ba/F3, T315I-Bcr-Abl Ba/F3 and VEGFR2 Ba/F3 cell lines.

A further test relates to wt-Bcr-Abl Ba/F3. The test can be described thus: Proliferation inhibitory activity, wt-Bcr-Abl Ba/F3. The conditions noted are these: for GI50: Mus musculus, BaF3, wt-Bcr-Abl Ba/F3 cell line; for inhibitory activity against wt-Bcr-Abl (in words): summary of Table 1. The method, then:
as §1

Another test has as its system VEGFR2 Ba/F3. Kind of test: Proliferation inhibitory activity, VEGFR2 Ba/F3. Conditions: for GI50: Mus musculus, BaF3, VEGFR2 Ba/F3 cell line; for inhibitory activity against VEGFR2 kinase (in words): summary of Table 1. The method, then: as §1
Another test relates to Parental Ba/F3. The test can be described thus: Proliferation inhibitory activity, parental Ba/F3. The conditions noted are these: Mus musculus, BaF3; parental Ba/F3 cell line. The protocol: as §1

What is called GI50 is the concentration giving 50% growth inhibition. With `Cc1cn(-c2cc(C(=O)Nc3ccc(C)c(-c4ccc5ccn(-c6cc(N)ncn6)c5c4)c3)cc(C(F)(F)F)c2)cn1` [Compound No. 1], in the test with T315I-Bcr-Abl Ba/F3, the GI50 is less than 0.3 µM and the “inhibitory activity against T315I-Bcr-Abl (in words)” value is recorded as “strong inhibitory activity”. For the same compound, in the test on wt-Bcr-Abl Ba/F3, the GI50 is 0.3 to 3 µM and the “inhibitory activity against wt-Bcr-Abl (in words)” value is listed as “have a wt-Bcr-Abl inhibitory activity”. For the same compound, in the test on VEGFR2 Ba/F3, the GI50 was greater than 3 µM and the “inhibitory activity against VEGFR2 kinase (in words)” value is “does not exhibit any inhibitory activity”. The GI50 in the test with Parental Ba/F3 was in the range of 0.3 to 3 µM.
For the compound `Cc1ccc(NC(=O)c2cc(N3CCC(O)CC3)cc(C(F)(F)F)c2)cc1-c1ccc2ccn(-c3cc(N)ncn3)c2c1` [Compound No. 2], the GI50 with T315I-Bcr-Abl Ba/F3 was less than 0.3 µM; with wt-Bcr-Abl Ba/F3, greater than 3 µM; in the test on VEGFR2 Ba/F3, greater than 3 µM; in the test with Parental Ba/F3 it was greater than 3 µM.
For `Cc1ccc(NC(=O)c2cc(N3CCOCC3)cc(C(F)(F)F)c2)cc1-c1ccc2ccn(-c3cc(N)ncn3)c2c1` [Compound No. 3], the GI50 with T315I-Bcr-Abl Ba/F3 was less than 0.3 µM; with wt-Bcr-Abl Ba/F3, greater than 3 µM; with VEGFR2 Ba/F3, greater than 3 µM; in the test on Parental Ba/F3, greater than 3 µM.
For the compound `Cc1ccc(NC(=O)c2ccc(N3CCN(C)CC3)c(C(F)(F)F)c2)cc1-c1ccc2ccn(-c3cc(N)ncn3)c2c1` [Compound No. 5], in the test on T315I-Bcr-Abl Ba/F3, the GI50 is less than 0.3 µM and the “inhibitory activity against T315I-Bcr-Abl (in words)” value is “strong inhibitory activity”. Also, in the test with wt-Bcr-Abl Ba/F3, the concentration for 50% growth inhibition (GI50) lay in the range of 0.3 to 3 µM and the “inhibitory activity against wt-Bcr-Abl (in words)” value is listed as “have a wt-Bcr-Abl inhibitory activity”. Further, in the test with VEGFR2 Ba/F3, the GI50 was greater than 3 µM and the “inhibitory activity against VEGFR2 kinase (in words)” value is on record as “does not exhibit any inhibitory activity”. Moreover, the GI50 in the test on Parental Ba/F3 was in the range of 0.3 to 3 µM.
Turning to `Cc1cn(-c2cc(C(=O)Nc3cccc(-c4ccc5ccn(-c6cc(N)ncn6)c5c4)c3)cc(C(F)(F)F)c2)cn1` [Compound No. 7, N-(3-(1-(6-aminopyrimidine-4-yl)-1H-indole-6-yl)phenyl)-3-(4-methyl-1H-imidazole-1-yl)-5-(trifluoromethyl)benzamide], the GI50 was 0.3 to 3 µM with T315I-Bcr-Abl Ba/F3, greater than 3 µM in the test with wt-Bcr-Abl Ba/F3, greater than 3 µM in the test with VEGFR2 Ba/F3 and greater than 3 µM with Parental Ba/F3.
Regarding `Nc1cc(-n2ccc3ccc(-c4cccc(NC(=O)c5cc(N6CCOCC6)cc(C(F)(F)F)c5)c4)cc32)ncn1` [Compound No. 8, N-(3-(1-(6-aminopyrimidine-4-yl)-1H-indole-6-yl)phenyl)-3-morpholino-5-(trifluoromethyl)benzamide], the GI50 in the test on T315I-Bcr-Abl Ba/F3, with wt-Bcr-Abl Ba/F3, in the test on VEGFR2 Ba/F3 and with Parental Ba/F3 was greater than 3 µM each time.
In the case of `COc1ccccc1NC(=O)Nc1ccc(C)c(-c2ccc3ccn(-c4cc(N)ncn4)c3c2)c1` [Compound No. 9, 1-(3-(1-(6-aminopyrimidine-4-yl)-1H-indole-6-yl)-4-methylphenyl)-3-(2-methoxyphenyl) urea], the GI50 with T315I-Bcr-Abl Ba/F3, in the test with wt-Bcr-Abl Ba/F3, in the test on VEGFR2 Ba/F3 and with Parental Ba/F3 was greater than 3 µM throughout.
As for `COc1ccccc1NC(=O)Nc1cccc(-c2ccc3ccn(-c4ncnc5[nH]ccc45)c3c2)c1` [Compound No. 10, 1-(3-(1-(7H-pyrrolo[2,3-d]pyrimidine-4-yl)-1H-indole-6-yl)phenyl)-3-(2-methoxyphenyl)urea], the GI50 in the test on T315I-Bcr-Abl Ba/F3, with wt-Bcr-Abl Ba/F3, in the test with VEGFR2 Ba/F3 and with Parental Ba/F3 was greater than 3 µM each time.
With `Cc1cn(-c2cc(C(=O)Nc3ccc(C)c(-c4ccc5ccn(-c6ncnc7[nH]ccc67)c5c4)c3)cc(C(F)(F)F)c2)cn1` [Compound No. 11], in the test on T315I-Bcr-Abl Ba/F3, the GI50 is less than 0.3 µM and the “inhibitory activity against T315I-Bcr-Abl (in words)” value was “strong inhibitory activity”. In the test on wt-Bcr-Abl Ba/F3, the GI50 is less than 0.3 µM and the “inhibitory activity against wt-Bcr-Abl (in words)” value was “have a wt-Bcr-Abl inhibitory activity”. In the test with VEGFR2 Ba/F3, the GI50 was greater than 3 µM and the “inhibitory activity against VEGFR2 kinase (in words)” value is recorded as “does not exhibit any inhibitory activity”. The GI50 with Parental Ba/F3 fell in the range of 0.3 to 3 µM.
Turning to `Cc1ccc(NC(=O)c2cc(N3CCC(O)CC3)cc(C(F)(F)F)c2)cc1-c1ccc2ccn(-c3ncnc4[nH]ccc34)c2c1` [Compound No. 12, N-(3-(1-(7H-pyrrolo[2,3-d]pyrimidine-4-yl)-1H-indole-6-yl)-4-methylphenyl)-3-(4-hydroxypiperidine-1-yl)-5-(trifluoromethyl)benzamide], the GI50 with T315I-Bcr-Abl Ba/F3 is 0.3 to 3 µM; with wt-Bcr-Abl Ba/F3, greater than 3 µM; in the test on VEGFR2 Ba/F3, greater than 3 µM; in the test with Parental Ba/F3, greater than 3 µM.
As to `Cc1ccc(NC(=O)c2cc(N3CCOCC3)cc(C(F)(F)F)c2)cc1-c1ccc2ccn(-c3ncnc4[nH]ccc34)c2c1` [Compound No. 13, N-(3-(1-(7H-pyrrolo[2,3-d]pyrimidine-4-yl)-1H-indole-6-yl)-4-methylphenyl)-3-morpholino-5-(trifluoromethyl)benzamide], the GI50 was 0.3 to 3 µM in the test with T315I-Bcr-Abl Ba/F3, 0.3 to 3 µM in the test on wt-Bcr-Abl Ba/F3, greater than 3 µM with VEGFR2 Ba/F3 and greater than 3 µM with Parental Ba/F3.
As to `Cc1ccc(NC(=O)c2cc(N3CCN(C)CC3)cc(C(F)(F)F)c2)cc1-c1ccc2ccn(-c3ncnc4[nH]ccc34)c2c1` [Compound No. 14, N-(3-(1-(7H-pyrrolo[2,3-d]pyrimidine-4-yl)-1H-indole-6-yl)-4-methylphenyl)-3-(4-methylpiperazine-1-yl)-5-(trifluoromethyl)benzamide], the GI50 is less than 0.3 µM in the test with T315I-Bcr-Abl Ba/F3, 0.3 to 3 µM in the test with wt-Bcr-Abl Ba/F3, 0.3 to 3 µM in the test on VEGFR2 Ba/F3 and 0.3 to 3 µM with Parental Ba/F3.
Consider `Cc1ccc(NC(=O)c2ccc(N3CCN(C)CC3)c(C(F)(F)F)c2)cc1-c1ccc2ccn(-c3ncnc4[nH]ccc34)c2c1` [Compound No. 15, N-(3-(1-(7H-pyrrolo[2,3-d]pyrimidine-4-yl)-1H-indole-6-yl)-4-methylphenyl)-4-(4-methylpiperazine-1-yl)-5-(trifluoromethyl)benzamide], for which the GI50 with T315I-Bcr-Abl Ba/F3 was less than 0.3 µM; in the test on wt-Bcr-Abl Ba/F3 it was 0.3 to 3 µM; in the test with VEGFR2 Ba/F3, 0.3 to 3 µM; in the test on Parental Ba/F3, 0.3 to 3 µM.
For the compound `Cc1ccc(NC(=O)c2ccc(CN3CCN(C)CC3)c(C(F)(F)F)c2)cc1-c1ccc2ccn(-c3ncnc4[nH]ccc34)c2c1` [Compound No. 16, N-(3-(1-(7H-pyrrolo[2,3-d]pyrimidine-4-yl)-1H-indole-6-yl)-4-methylphenyl)-4-((4-methylpiperazine-1-yl)methyl)-3-(trifluoromethyl)benzamide], the GI50 in the test with T315I-Bcr-Abl Ba/F3 is less than 0.3 µM; in the test with wt-Bcr-Abl Ba/F3, less than 0.3 µM; in the test on VEGFR2 Ba/F3, 0.3 to 3 µM; with Parental Ba/F3 it was 0.3 to 3 µM.
